This is an account of results in patent US20260034253A1, “NECTIN-4 MINIPROTEIN CONJUGATES” (Aktis Oncology, Inc., priority 2022, published 2026).

Numbered stars: 1 amine (or outer) side, 2 acyl side, 3 side chain; on linkers, the order of the positions; unused ones are H or OH. Bridge positions count the residues as written; N and C are the ends. Square brackets hold non-standard residues; d marks the D form. Ends that are not written are not given here. * marks the point of attachment. Biotin = O=C1N[C@H]2[C@H](CS[C@H]2CCCCC(=O)*)N1; X1 = O=C([C@H](CCCCO)N[*:1])[*:2]; Cit = NC(=O)NCCC[C@H](N)C(=O)O; PEG4 = NCCOCCOCCOCCOCCC(=O)O

The target in the assay is T1, human Nectin-4 (Homo sapiens, UniProt Q96NY8).
T1 sequence (Q96NY8 32-510): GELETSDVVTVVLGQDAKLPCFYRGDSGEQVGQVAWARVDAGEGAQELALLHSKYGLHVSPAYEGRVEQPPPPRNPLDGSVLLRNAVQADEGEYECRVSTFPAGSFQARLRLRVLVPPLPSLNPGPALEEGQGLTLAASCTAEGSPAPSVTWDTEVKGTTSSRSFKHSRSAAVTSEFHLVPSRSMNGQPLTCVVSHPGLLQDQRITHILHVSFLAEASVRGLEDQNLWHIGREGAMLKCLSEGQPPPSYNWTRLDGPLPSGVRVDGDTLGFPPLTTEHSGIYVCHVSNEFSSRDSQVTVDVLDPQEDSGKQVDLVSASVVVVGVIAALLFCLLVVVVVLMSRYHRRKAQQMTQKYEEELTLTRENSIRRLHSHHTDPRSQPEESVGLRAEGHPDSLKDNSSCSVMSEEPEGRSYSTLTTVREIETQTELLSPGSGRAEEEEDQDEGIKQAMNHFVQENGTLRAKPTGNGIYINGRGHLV
The assay can be described thus: Surface plasmon resonance (Biacore T200) binding to human Nectin-4. To be noted: Table 2B, binding affinities of exemplary compounds to Nectin-4, read-out: Binding Affinity. How it is done:
Peptide binding affinity to the target protein was measured by SPR using a Biacore T200 instrument. The target protein was covalently coupled to a Biacore chip surface using free amine-coupling chemistry (NHS/EDC) and all uncoupled sites were blocked with ethanolamine. Free peptides were flowed over the target protein surface in increasing concentrations to measure association (KA) and dissociation ([…]) to calculate the equilibrium dissociation constant (KD) using an appropriate binding model (see, e.g., Nikolas Stroth, J Biol Methods. 2016; 3 (1)).
In all figures (FIGS. 1A, 1B, 2A, and 2B), lines on graphs are labeled from top to bottom, beginning with letter “a,” and the corresponding concentration is noted to the right of the figure, next to the letter designating each line.
Surface plasmon resonance (SPR) analyses were performed using Biacore T200 (GE Healthcare). Target protein (“ligand”) was immobilized to a CM5 Series S sensor chip (Cytiva) using amine-coupling chemistry. Running buffer was 0.05% Surfactant P20 in HEPES buffered saline (HBS-P), pH 7.4 (Cytiva). Immobilization was performed at 25° C. Carboxyl groups in each flow cell were activated using a 1:1 mixture of 0.4 M 1-ethyl-3-(3-dimethylaminopropyl)-carbodiimide in water (EDC) and 0.1 M N-hydroxysuccinimide in water (NHS) for 7 minutes. The ligand was prepared in 10 mM Sodium acetate pH 5 (Cytiva). Pulsatile injections were made to target a specific immobilization level. Any remaining amine-reactive esters on the chip surface were blocked with a 7-minute injection of 1 M ethanolamine, pH 8.5. Three 10-second pulses of 50 mM Sodium hydroxide were then made to remove any unbound ligand. Reference cells were modified using amine coupling chemistry, omitting ligand injection.
Increase in signal (RU) is proportional to an increase in binding events between the analyte and ligand surface. The injection was then stopped, and dissociation was measured. The resulting sensorgram has reference surface and blank injection subtracted prior to curve fitting. Measured association (ka, 1/M^s−1) and dissociation (kd, s^−1) were fit to a 1:1 binding model to calculate an equilibrium dissociation constant, KD(M) for each analyte. Equilibrium binding constants (KD) and binding inhibition constants (Ki) estimated from surface plasmon resonance (SPR) or DELFIA® binding assays for exemplary compounds as set forth in Table 2A.
In this example, affinity for mouse Nectin-4 (FIG. 3A) and human Nectin-4 (FIG. 3B) were measured using a 1:1 binding model at twenty-five degrees Celsius. In both of FIGS. 3A and 3B, lines on graphs were labeled from top to bottom, beginning with letter a, and the corresponding concentration was noted to the right of the figure.
In general terms: Surface plasmon resonance follows binding to a sensor surface in real time, without labels.
For `CC[C@H](C)[C@@H]1NC(=O)[C@H](Cc2ccc(O)cc2)NC(=O)[C@H](CO)NC(=O)[C@@H]2CSSC[C@@H](C(=O)N[C@@H](CO)C(=O)O)NC(=O)CNC(=O)[C@H](CC(C)C)NC(=O)[C@H](CC(N)=O)NC(=O)[C@H](CC(=O)O)NC(=O)[C@H](CC(C)C)NC(=O)[C@H]([C@@H](C)CC)NC(=O)[C@H](CCC(=O)O)NC(=O)[C@H](CCC(=O)O)NC(=O)[C@H]([C@@H](C)CC)NC(=O)[C@H](CSSC[C@H](NC(=O)CCOCCOCCOCCOCCNC(=O)CCCC[C@@H]3SC[C@@H]4NC(=O)N[C@@H]43)C(=O)N[C@@H](CCC(=O)O)C(=O)N[C@@H](Cc3ccc(O)cc3)C(=O)N[C@@H](CC(=O)O)C(=O)N[C@@H](CCC(=O)O)C(=O)N[C@@H](CCC(=O)O)C(=O)N[C@@H](Cc3ccccc3)C(=O)N[C@@H](Cc3ccccc3)C(=O)N[C@@H]([C@@H](C)O)C(=O)N[C@@H](C)C(=O)N[C@@H](CC(C)C)C(=O)N[C@@H](CCCCN)C(=O)N[C@@H](CCCNC(=N)N)C(=O)N[C@@H](CC(C)C)C(=O)N[C@@H](CCCNC(=N)N)C(=O)NCC(=O)NCC(=O)N[C@@H](CC(=O)O)C(=O)N[C@@H]([C@@H](C)CC)C(=O)N2)NC(=O)[C@H](CC(C)C)NC(=O)CNC(=O)[C@@H]2CCCN2C(=O)[C@H](CC(C)C)NC(=O)[C@H](Cc2ccc(O)cc2)NC(=O)[C@H](CCC(N)=O)NC(=O)[C@H](Cc2ccccc2)NC(=O)[C@H](CO)NC(=O)[C@H](C)NC(=O)[C@H](CCC(N)=O)NC1=O` [Compound C179], the Kd is 1.8 nM.
Under “{Biotin-PEG4}-CDYDEEFFTALKRLRGDDICEYIQASFQYLPGLCIEEILDNLGCS-OH (disulfide 1-34, 20-44) [Compound C191]” stands 1.4 nM; under “{Biotin-PEG4}-CDYDEEFFTALKRLRGGDICSYIQASFQYLPGLCIEEILDNLGCS (disulfide 1-34, 20-44) [Compound C189]”, 1.1 nM.
Under “{Biotin-PEG4}-CDYDEQFFTALKRLRGDDICEYIQASFQYLPGLCIEEILDNLGCS (disulfide 1-34, 20-44) [Compound C193]” stands 1 nM; under “{Biotin-PEG4}-CEYDEEFFTALAQLRGGDICYYIQAKFQYLPGLCIEEILDNLGCS (disulfide 1-34, 20-44) [Compound C162]”, 8.8 nM; under “{Biotin-PEG4}-CEYDEEFFTALARLRGADICYYIQAKFQYLPGDCIEEILDNLGCS (disulfide 1-34, 20-44) [Compound C140]”, 1.1 nM.
With “{Biotin-PEG4}-CEYDEEFFTALARLRGGDICDYIQAKFQYLPGLCIAEILDNLGCS (disulfide 1-34, 20-44) [Compound C157]”, the Kd turned out to be 1.1 nM.
Take “{Biotin-PEG4}-CEYDEEFFTALARLRGGDICEYIQAKFQYLEGLCIEEILDNLGCS-OH (disulfide 1-34, 20-44) [Compound C150]”: the Kd is 1 nM.
Next, “{Biotin-PEG4}-CEYDEEFFTALARLRGGDICQYIQAKFQYLPGQCIEEILDNLGCS-OH (disulfide 1-34, 20-44) [Compound C149]”: 0.75 nM; “{Biotin-PEG4}-CEYDEEFFTALARLRGGDICYYILAKFQYLPGECIEEILDNLGCS (disulfide 1-34, 20-44) [Compound C145]”: 1.3 nM.
Take “{Biotin-PEG4}-CEYDEEFFTALARLRGGDICYYIQAKFQYLPKLCIEEILDNLGCS (disulfide 1-34, 20-44) [Compound C166]”: the Kd was found to be 0.75 nM.
For “{Biotin-PEG4}-CEYDEEFFTALARLRGGDICYYIQA[X1]FQYLPGLCIEEILDNLGCS-OH (disulfide 1-34, 20-44) [Compound C164]”, the Kd came to 5 nM.
Under “{Biotin-PEG4}-CEYDEEFFTALARLRGSDICLYIQAKFQYLPGLCIEEILDNLGCS (disulfide 1-34, 20-44) [Compound C156]” stands 1.1 nM.
Under “{Biotin-PEG4}-CEYDEEFFTALASLRGGDICYYIQAKFQYLPGLCIEEILDNLGCS-OH (disulfide 1-34, 20-44) [Compound C161]” stands 7.5 nM; under “{Biotin-PEG4}-CEYDEEFFTALA[Cit]LRGDDICSYIQA[X1]FQYLPGLCIEEILDNLGCS-OH (disulfide 1-34, 20-44) [Compound C170]”, 8.8 nM; under “{Biotin-PEG4}-CEYDEEFFTALKRLRGADICDYIQASFQYLPGLCIEEILDNLGCS (disulfide 1-34, 20-44) [Compound C195]”, 2.3 nM.
As for “{Biotin-PEG4}-CEYDEEFFTALKRLRGDDICSYIQASFQYLPGLCIEEILDNLGCS (disulfide 1-34, 20-44) [Compound C182]”, the Kd is 3 nM.
For “{Biotin-PEG4}-CEYDEEFFTALKRLRGGDICDYIQASFQYLPGECIEEILDNLGCS (disulfide 1-34, 20-44) [Compound C203]”, the Kd is 2.3 nM.
Next, “{Biotin-PEG4}-CEYDEEFFTALKRLRGGDICDYIQASFQYLPGLCIEEILDNLGCS-OH (disulfide 1-34, 20-44) [Compound C200]”: 2 nM.
“{Biotin-PEG4}-CEYDEEFFTALKRLRGGDICEYIQAAFQYLPGLCIEEILDNLGCS (disulfide 1-34, 20-44) [Compound C198]”: the Kd worked out at 2.3 nM.
Next, “{Biotin-PEG4}-CEYDEEFFTALKRLRGGDICEYIQASFQYLPGECIEEILDNLGCS (disulfide 1-34, 20-44) [Compound C202]”: 2.2 nM.
“{Biotin-PEG4}-CEYDEQFFTALKRLRGADICEYIQASFQYLPGLCIEEILDNLGCS (disulfide 1-34, 20-44) [Compound C183]”: the Kd came to 1.2 nM.
Under “{Biotin-PEG4}-CEYDEQFFTALKRLRGADICSYIQASFQYLPGLCIEEILDNLGCS (disulfide 1-34, 20-44) [Compound C185]” stands 1 nM; under “{Biotin-PEG4}-CEYDGEFFTALARLRGADICEYIQAKFQYYPGLCIEEILDNLGCS (disulfide 1-34, 20-44) [Compound C144]”, 3.7 nM; under “{Biotin-PEG4}-CEYDGEFFTALARLRGGDICQYIQAKFQYLPGLCIEEILDNLGCS-OH (disulfide 1-34, 20-44) [Compound C158]”, 1.1 nM.
